Experimental data published in a melting point compilation (Tetko et al.; mined from patent text by program, amines drawn as free bases though some values may be those of a salt).

| melting point [°C] | Structure (SMILES) |
| --- | --- |
| 248 | COc1cc(C)nc(-n2nc(C)n(NS(=O)(=O)c3ccccc3OC(F)(F)F)c2=O)n1 |
| 147 | CC(C)CCC(=O)OC1c2ccccc2C(=O)N1c1ccc2ccc(Cl)nc2n1 (stereo unspecified) |
| 204 to 206 | COc1cc([N+](=O)[O-])c2ncccc2c1Cl |
| 202 to 206 | CC(C)(C)OC(=O)N1CCC(c2nc3cc(-c4ccc(C(N)=O)c(F)c4)ccc3o2)CC1 |
| 152 to 156 | Cc1ccc(Sc2cncc3sc(C=NOCC(N)=O)cc23)cc1 |
| 188 to 196 | Nc1ccc(C=CC2CSC(=O)NN2)cc1 (stereo unspecified) |
| 170 to 172 | CN1CC(c2cccc(Cl)c2)=C(c2ccc(S(C)(=O)=O)cc2)C1=O |
| 147 to 148 | CCOC(=O)c1c(CCl)nc2cc(OC)c(OC)cc2c1-c1ccc(F)cc1 |
| 186 to 188 | Cc1ccc(C(CC(=O)O)C(=O)O)s1 (stereo unspecified) |
| 159 to 160 | CC1(C)CCC(C)(C)c2cc(C#CCc3ccc(C(=O)O)cc3)ccc21 |
| 196 to 198 | COc1cc(N)c(Cl)cc1C(=O)NCC1CCN(CCCCCNC(=O)c2ccc(Cl)cc2)CC1 |
| 81.5 to 84.5 | C=COCCn1cccc1-c1nc(-c2ccc(OC)cc2)c(-c2ccc(OC)cc2)s1 |
| 138 to 139 | CC(C)(CNc1ccnc2cc(Cl)ccc12)NCc1ccc(Cl)cc1Cl |
| 167 to 169 | COc1cc2c(cc1OC)CCCC(C(=O)N1CCN(Cc3cc(OC)c(OC)c(OC)c3)CC1CN(C)C)=C2 (stereo unspecified) |
| 93 to 96.5 | COc1ccccc1NCN1C(=O)CN(C)C1=O |
| 82 to 85 | COc1ccc(C(=O)C=CN(C)C)cc1 |
| 163 to 164 | CCN1CCN(c2nc(C)c(C(=O)NCc3cccnc3)s2)C1=O |
| 267 to 268 | COc1ccc(-c2nc(C(=O)N(C)C)c3c4ccc(Cl)cc4n(C)c3n2)cn1 |
| 261 | O=C(O)c1ccc2c(c1)C(=Cc1ccccc1)OC2=O |
| 169 to 172 | CS(=O)(=O)OCC1CN(c2ccc3ccccc3c2)C(=O)O1 (stereo unspecified) |
| 209 to 211 | N#Cc1c(C(=O)O)cnn1-c1ccc(Br)cc1 |
| 32.5 to 50.8 | COC(=O)C(NCC(=O)c1ccccc1)C(C)C (racemic) |
| 149 to 150 | CC(=O)CC(=O)N1C(=N)CCN=C(c2ccccc2)c2cc(Cl)ccc21 |

| melting point [°C] | Structure (SMILES) |
| --- | --- |
| 111 to 112 | CC(C)NC(=O)OCC(=O)c1ccc(C2CCCCC2)cc1 |
| 196 to 197 | CC(=O)Nc1ccc(N2CCN(Cc3ncc(-c4ccccc4)o3)CC2)cc1 |
| 37 to 38 | COC(=O)CCCCCCCCC(=O)c1ccccc1 |
| 246 to 248 | COc1cc(Cl)cc(C)c1Nc1nc2c(Cl)ccc(C(O)(C(C)(C)C)C(C)(C)C)c2n1C |
| 95 to 97 | Cc1ccc(S(=O)(=O)OCC2Cc3c(Cl)cc4c(c3O2)CCC4)cc1 (stereo unspecified) |
| 219 to 228 | Cc1noc(NS(=O)(=O)c2ccc(-c3ccc(C(=O)O)cc3)s2)c1Br |
| 234 to 235 | Cc1noc(NC(=O)N2CCN(c3ccnc(-c4ccc(F)cc4F)c3)CC2)c1C |
| > 250 | NC(C(=O)O)C(=CF)c1c[nH]c2ccc(O)cc12 (stereo unspecified) |
| 275 to 278 | CCc1cccc(C)c1CNc1cc(C(=O)O)cc2c1nc(COC)n2C |
| 190 to 191 | COc1ccc(C=CC(=O)Nc2ccc(C)cc2C(=O)O)cc1OC |
| 133 to 135 | COc1ccc(-c2cc(C(F)F)nn2-c2ccc(S(N)(=O)=O)cc2)cc1 |
| 290 to 291 | Cc1csc2nc(C(=O)NCc3cccc(CNC(=O)c4nc[nH]n4)c3)[nH]c(=O)c12 |
| 162 to 165 | COc1ccc(C(=O)O)cc1Oc1ccc(C(F)(F)F)cc1Cl |
| 166 to 167 | CC#Cc1ccc2[nH]c(C(=O)OCC)cc2c1 |
| 155 to 156 | O=C(Nc1c(C(O)(C(F)(F)F)C(F)(F)F)ccc2ccccc12)c1ccc(Br)cc1 |
| 113 to 114 | COC(=O)C1CN(C(=O)c2cc(OC)c(OC)c(OC)c2)CCN1 (stereo unspecified) |
| 153 to 155 | CC(C)(C)CC(C)(C)c1ccc(C(=O)O)cc1 |
| 113 to 115 | CCCc1c(OCCCOc2ccc3c(=O)cc(C(=O)OC)oc3c2CCC)ccc(C(C)=O)c1O |
| 72 to 73 | COC(=O)Cc1ccc2c(c1)C(OC)=Cc1ccccc1C2 |
| 231 to 232 | O=C(c1ccc(Cl)cc1Cl)N1CCC(=NO)c2ccc(Cl)cc21 |
| 118 to 120 | CCSc1nnc(-c2ccc(OC)cc2)c(-c2ccc(OC)cc2)n1 |
| 157 to 159 | Cc1c(N2CCc3c(-c4ccccc4)cccc32)nc2ccc(F)cc2c1C(=O)O |
| 253 | O=C(Nc1cccc(S(=O)(=O)N2CCOCC2)c1)c1cnn2c(C(F)F)cc(-c3ccc(Cl)cc3)nc12 |

Further lines, the compound ahead of its results:

| Structure (SMILES) | melting point [°C] |
| --- | --- |
| C=CCC(C#N)(C#N)Cc1ccc(OCC)cc1 | 84.3 |
| Clc1cc2snnc2s1 | 78 to 79 |
| CCOC(=O)CSc1nc(=O)[nH]cc1F | 156 |
| CCN(Cc1ccccc1)C(=O)Cc1c(-c2ccc(OC)cc2)nc2cc(C)ccn12 | 175 to 178 |
| CCC(=NNC(=O)c1cccc(C(F)(F)F)c1)c1cccnc1 | 119 |
| Cc1ccnc2c1C(=O)CC(c1cc(Cl)sc1Cl)C2 (stereo unspecified) | 130 to 131 |
| Cc1cccc2c(C#N)cn(C)c12 | 116 |
| Cc1nc2cc(Br)cc(Br)c2o1 | 122 to 124 |
| Cc1nc2c(N)nc3ccccc3c2n1C | 288 to 290 |
| CN1CCN(Nc2cc(Cl)ccc2[N+](=O)[O-])CC1 | 108 |
| N#Cc1ncn2c(C(F)(F)F)cc(-c3ccc(Cl)cc3)nc12 | 205 |
| OCCCNc1nc2cc(C(F)(F)F)c(Br)cc2n2ccnc12 | 148 to 161 |
| CN1CCN(c2ccc([N+](=O)[O-])cc2F)CC1 | 68 to 70 |
| CCCn1c(=O)c2c(nc(/C=C/c3ccco3)n2C)n(CCC)c1=O | 161 to 162 |
| O=C(O)c1cn(C2CC2)c2c(F)c(F)c(F)c(NC(=O)C(F)(F)F)c2c1=O | 188 |
| OCCN1CCN(c2ccc(Nc3ncc4ccc(-c5cccnc5)n4n3)cc2)CC1 | 189 to 190 |
| c1ccc(C(Cn2cncn2)c2ccccc2)cc1 | 107 to 108 |
| CC(C)OC(=O)Cn1c(=O)n(C)c(=O)n(-c2cc(N=c3sc(=O)n4n3CCC=C4)c(F)cc2Cl)c1=O | 99 to 111 |
| CN(C)S(=O)(=O)c1ccccc1Cl | 49 to 51 |
| O=C1NC(=O)C(CC#Cc2ccc(Cl)cc2)(Sc2ccc(Cl)cc2)S1 (stereo unspecified) | 144 to 146 |
| NCC(=O)N1CCC(C2c3ncc(Br)cc3CCc3cc(Cl)cc(Cl)c32)CC1 (single isomer, unassigned; (+)) | 81 to 122 |
| O=C1NC(=O)C(CCCc2ccc(O)cc2)O1 (stereo unspecified) | 132 to 133 |
| O=[N+]([O-])c1ccc2c(c1)C(c1ccccc1F)=NCC(OP(=O)(N1CCOCC1)N1CCOCC1)=N2 | 169 to 172 |
| CN1C(=O)N(CC2=C(CC3CCCC3)C(=O)OC2)C(=O)C1(C)C | 77 to 79 |
| CN1C(=O)CN(C2=CC(C)(C)Oc3ccc(C#N)cc32)C1=O | 188 to 190 |
| CCN(CC)C(=O)n1ccc(S(=O)(=O)c2c(F)cccc2F)n1 | 83 to 83.5 |
| CCn1c(C)c(C2(c3ccc(N(C)C)cc3N(C)C)OC(=O)c3ccccc32)c2ccccc21 (stereo unspecified) | 218 to 222 |
| O=S(=O)(c1ccccc1)N1CCC(C(c2ccc(F)cc2)c2ccc(F)cc2)CC1 | 180 to 184 |

| Structure (SMILES) | melting point [°C] |
| --- | --- |
| CCOC(=O)C1=C2C(=CC3=C(CCCC3)N2O)SC1C (stereo unspecified) | 135 to 136 |
| Cc1cnc2sc(Sc3ccccc3)nn2c1=O | 141 to 143 |
| Oc1cc2ccsc2c(Cl)c1Cl | 97 to 98 |
| Cc1nn(C)c2nc(C(C)C)c(CO)c(-c3ccc(F)cc3)c12 | 166 to 168 |
| O=[N+]([O-])c1c(Cl)cccc1NCCO | 78 |
| CC(=O)S[C@H]1CNC(=S)C1 | 91 to 93 |
| O=C1C[C@@H]2[C@@H](/C=C/[C@H](CCc3ccccc3)OC3CCCCO3)[C@H](OC(=O)c3ccc(-c4ccccc4)cc3)C[C@@H]2O1 (stereo partly specified) | 118 to 119 |
| OCc1conc1-c1ccc(F)c(Cl)c1 | 87 to 88 |
| COc1cc(C)c(CCCCCCCCCCCCCCCCCCOC(C)=O)c(O)c1OC | 53 |
| C=CCN(CC=C)c1nc(NCC(=O)OC)n2oc(=O)nc2n1 | 173 to 174 |
| CC1=NNC(=O)N(N=Cc2cccnc2C)C1 | 226 to 229 |
| CN1CCN(C=Nc2ccc3nnc(-c4ccc([N+](=O)[O-])o4)n3n2)CC1 | 247 to 248 |
| CSc1cc(C)nc(SC)c1NC(=O)CN1CCN(CCO)CC1 | 119 to 120 |
| CC1(C)OCC(COc2ccc(Br)cc2C23CC4CC(CC(C4)C2)C3)O1 (stereo unspecified) | 91 |
| O=C1CCC(N2C(=O)c3cccc(OCc4ccc(CN5CCc6ncccc6C5)cc4)c3C2=O)C(=O)N1 (stereo unspecified) | 165 to 167 |
| CCN1C(=O)C(C)(C)C(=O)N(C)c2cc(CN(CCn3ccc4oc(C)cc4c3=O)Cc3cccnc3C#N)ccc21 | 114 to 118 |
| CC(C)C[C@H](NC(=O)[C@H](Cc1ccccc1)NCC(S)C(N)Cc1ccccc1)C(=O)O (stereo partly specified) | 123 to 160 |
| O=C(O)c1c(F)c(F)c(O)c(Cl)c1F | 87 to 90 |
| OC(CCCN1CC=C(c2ccccc2)CC1)c1ccc(F)cc1 (stereo unspecified) | 116 to 117 |
| CCCCCCCCCCCCCCCC(=O)C1C(=O)CC(C#N)CC1=O (stereo unspecified) | 66 to 69 |
| CCCc1nc2c(N)nc3ccccc3c2n1OC | 210 to 211 |
| CC(=O)NCc1ccc2ccn(C3CCN(CCc4ccc(F)cc4)CC3)c2c1 | 127 to 128 |
| O=C(c1c(F)cccc1F)N1COCN(c2ccc(S(=O)C(F)F)cc2F)C1=O (stereo unspecified) | 138 to 140 |
| CC1=C(CO)C(=O)OC(C(C)C2CCC3C4CC5OC56C(O)C=CC(=O)C6(C)C4CCC23C)C1 (stereo unspecified) | 227 to 228 |
| Cc1ccc(OC(F)C(F)(F)F)c([N+](=O)[O-])c1[N+](=O)[O-] (stereo unspecified) | 35 |
| CC(O)c1cc2c(Cl)cc(F)c(-n3c(=O)cc(C(F)(F)F)n(C)c3=O)c2o1 (stereo unspecified) | 154 to 157 |
| Nc1nc(Cl)c(Cl)nc1[N+](=O)[O-] | 169 to 170 |
